18 compounds from patent US20260217708A1, “FUSED BENZAZEPINE DERIVATIVES FOR USE IN THE TREATMENT OF CANCER AND EPILEPSY” (UCB BIOPHARMA SRL, priority 2023, published 2026) can be followed below.

The target of experiment [1] is T1, system Xc^− (Homo sapiens, UniProt Q9UPY5).
T1 sequence (Q9UPY5 1-501): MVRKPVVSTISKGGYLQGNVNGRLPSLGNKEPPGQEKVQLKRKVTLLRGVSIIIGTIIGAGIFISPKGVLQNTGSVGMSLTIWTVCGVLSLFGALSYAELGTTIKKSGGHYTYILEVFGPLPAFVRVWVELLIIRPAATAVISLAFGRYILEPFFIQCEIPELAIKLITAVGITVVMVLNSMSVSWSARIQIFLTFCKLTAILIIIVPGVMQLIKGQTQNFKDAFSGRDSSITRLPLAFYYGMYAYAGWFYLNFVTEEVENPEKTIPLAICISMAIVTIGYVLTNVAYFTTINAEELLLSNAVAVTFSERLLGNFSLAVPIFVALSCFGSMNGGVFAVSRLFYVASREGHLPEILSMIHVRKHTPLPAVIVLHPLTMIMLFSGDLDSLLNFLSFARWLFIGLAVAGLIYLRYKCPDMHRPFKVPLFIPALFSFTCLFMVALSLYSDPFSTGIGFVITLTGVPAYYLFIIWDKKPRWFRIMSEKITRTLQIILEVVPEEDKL
T1 sequence (P08195 1-529 partner): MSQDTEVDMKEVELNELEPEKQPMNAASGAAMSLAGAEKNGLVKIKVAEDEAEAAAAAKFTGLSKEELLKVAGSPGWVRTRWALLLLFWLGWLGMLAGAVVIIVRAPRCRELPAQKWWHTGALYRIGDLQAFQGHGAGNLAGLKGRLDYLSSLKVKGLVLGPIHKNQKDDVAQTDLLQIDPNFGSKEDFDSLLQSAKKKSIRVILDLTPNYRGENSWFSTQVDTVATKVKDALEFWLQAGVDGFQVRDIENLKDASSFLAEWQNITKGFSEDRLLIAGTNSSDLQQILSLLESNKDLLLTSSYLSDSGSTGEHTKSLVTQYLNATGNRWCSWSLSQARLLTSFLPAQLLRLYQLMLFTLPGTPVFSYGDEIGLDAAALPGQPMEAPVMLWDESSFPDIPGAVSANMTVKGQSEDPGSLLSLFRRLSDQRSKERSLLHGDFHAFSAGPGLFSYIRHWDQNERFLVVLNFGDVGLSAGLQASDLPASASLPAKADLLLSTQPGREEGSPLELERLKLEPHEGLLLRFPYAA
The experiment can be described thus: Cystine-induced glutamate release assay. It counts as cell-based. The arrangement: endogenous in cells; host or cells: H4 cells. Particulars: H4 cells, sodium-free HEPES buffer, 50 μM L-Cystine, 2 hours, Amplex Red glutamate readout; for IC50: read-out: pIC50 Cystine-induced glutamate release assay (converted). In outline:
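H4 cells in sodium-free HEPES buffer (pH 7.4), 2 days after plating; glutamate release induced with 50 μM L-cystine plus compound (1% DMSO), 2 h at 37 °C. Supernatant glutamate measured by Amplex Red fluorescence; IC50/pIC50 derived between 1% DMSO and 50 μM erastin controls.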

Experiment [2] concerns the target T1, system Xc^−. Description: [^14C]L-Cystine uptake assay. It counts as cell-based. The arrangement: endogenous in cells; host or cells: H4 cells. Conditions: H4 cells, sodium-free HEPES buffer, 0.5 μM L-[14C]Cystine and 4.5 μM L-Cystine, 1 hour at 37° C.; for IC50: read-out: pIC50 [^14C] L-Cystine uptake assay (converted). The method in brief: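 H4 cells at 5×10^4 cells/well in sodium-free HEPES buffer were preincubated 15 min with compounds (1% DMSO). Uptake of 0.5 μM [14C]L-cystine plus 4.5 μM unlabelled L-cystine ran 1 hour at 37° C on scintillating plates. IC50 was set between 1% DMSO and 50 μM Erastin controls and expressed as pIC50.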

Take `CC1C(=O)N(CC(=O)Nc2ccc(C(F)F)cc2)c2cc(N3CC4(C3)CC(F)(F)C4)nc(F)c2-c2cccnc21` (single isomer, unassigned) [#281, 2-[5-(6,6-difluoro-2-azaspiro[3.3]heptan-2-yl)-3-fluoro-10-methyl-9-oxo-4,8,12-triazatricyclo[9.4.0.0^2,7]pentadeca-1(15),2,4,6,11,13-hexaen-8-yl]-N-[4-(difluoromethyl)phenyl]acetamide]: the IC50 on system Xc^− [1] and at system Xc^− [2] was 0.0398 to 0.1 µM throughout.

As for `Cc1cc2c(c(F)n1)-c1cccnc1[C@@H](C)C(=O)N2CC(=O)Nc1ccc(Br)cc1` [#145, N-(4-bromophenyl)-2-[(10R)-3-fluoro-5,10-dimethyl-9-oxo-4,8,12-triazatricyclo[9.4.0.0^2,7]pentadeca-1(11),2(7),3,5,12,14-hexaen-8-yl]acetamide], the IC50 on system Xc^− [1] and at system Xc^− [2] was below 0.0158 µM each time.

On to `Cc1cc2c(c(=O)n1C)-c1ccccc1C(C)C(=O)N2CC(=O)Nc1ccc(Cl)c(F)c1` (single isomer, unassigned) [#219, Enantiomer (7S) or (7R) of N-(4-chloro-3-fluoro-phenyl)-2-[2,3,7-trimethyl-1,6-dioxo-7H-pyrido[4,3-d][3]benzazepin-5-yl]acetamide], for which the IC50 at system Xc^− [1] and at system Xc^− [2] was below 0.0158 µM each time.

Consider `CC1C(=O)N(CC(=O)Nc2ccc(Cl)c(F)c2)c2cc(C3(F)CC3)ncc2-c2cc(F)cnc21` (single isomer, unassigned) [#326, N-(4-chloro-3-fluoro-phenyl)-2-[14-fluoro-5-(1-fluorocyclopropyl)-10-methyl-9-oxo-4,8,12-triazatricyclo[9.4.0.0^2,7]pentadeca-1(15),2,4,6,11,13-hexaen-8-yl]acetamide], for which the IC50 at system Xc^− [1] and on system Xc^− [2] was below 0.0158 µM throughout.

Regarding `COc1cc2c(c(F)n1)-c1ncccc1C(C)C(=O)N2CC(=O)Nc1ccc(Cl)c(F)c1` (single isomer, unassigned) [#413, N-(4-chloro-3-fluoro-phenyl)-2-[15-fluoro-13-methoxy-8-methyl-9-oxo-3,10,14-triazatricyclo[9.4.0.0^2,7]pentadeca-1(11),2,4,6,12,14-hexaen-10-yl]acetamide], the IC50 at system Xc^− [1] is 0.0398 to 0.1 µM; on system Xc^− [2], 0.0158 to 0.0398 µM.

For the compound `COc1nc(C)cc2c1-c1cccnc1CC(=O)N2CC(=O)Nc1ccc(C(F)F)cc1` [#83, N-[4-(difluoromethyl)-phenyl]-2-(3-methoxy-5-methyl-9-oxo-4,8,12-triazatricyclo[9.4.0.0^2,7]pentadeca-1(11),2,4,6, 12,14-hexaen-8-yl)acet-amide], the IC50 on system Xc^− [1] and on system Xc^− [2] was below 0.0158 µM throughout.

For `Cc1cc2c(c(F)n1)-c1cccnc1C(C)(F)C(=O)N2CC(=O)Nc1ccc(C(F)(F)F)cc1` (stereo not drawn) [#89, 2-(3,10-difluoro-5,10-dimethyl-9-oxo-4,8,12-triazatricyclo[9.4.0.0^2,7]pentadeca-1(11),2(7),3,5,12,14-hexaen-8-yl)-N-[4-(trifluoromethyl)phenyl]acetamide], the IC50 at system Xc^− [1] was 0.0398 to 0.1 µM; on system Xc^− [2], 0.1 to 0.501 µM.

Regarding `COc1ncc(F)c2c1-c1ccccc1C(C)C(=O)N2CC(=O)Nc1ccc(Cl)c(F)c1` (stereo not drawn) [#400, N-(4-chloro-3-fluoro-phenyl)-2-(4-fluoro-1-methoxy-7-methyl-6-oxo-7H-pyrido[4,3-d][3]benzazepin-5-yl)acetamide], the figures for the IC50 on system Xc^− [1] and at system Xc^− [2] were 0.0398 to 0.1 µM and 0.1 to 0.501 µM, respectively.

In the case of `Cc1cc2c(cc1C)N(CC(=O)Nc1ccc(C(F)(F)F)cc1)C(=O)Cc1cncnc1-2` [#9, 2-(9,10-dimethyl-6-oxo-5H-pyrimido[5,4-d][1]benzazepin-7-yl)-N-[4-(trifluoromethyl)phenyl]acetamide], the IC50 at system Xc^− [1] is 0.1 to 0.501 µM; at system Xc^− [2], 0.0398 to 0.1 µM.

Consider `Cc1cc2c(c(Cl)n1)-c1cccnc1C(C)C(=O)N2CC(=O)Nc1cc(F)c(Cl)cc1F` (single isomer, unassigned) [#226, Enantiomer (10S) or (10R) of N-(4-chloro-2,5-difluoro-phenyl)-2-[3-chloro-5,10-dimethyl-9-oxo-4,8,12-triazatricyclo[9.4.0.0^2,7]pentadeca-1(11),2(7),3,5,12,14-hexaen-8-yl]acetamide], for which the figures for the IC50 at system Xc^− [1] and on system Xc^− [2] were below 0.0158 µM and 0.0158 to 0.0398 µM, respectively.

`Cc1cc2c(c(C(F)F)n1)-c1cccnc1C(C)C(=O)N2CC(=O)Nc1ccc(Cl)c(F)c1` (single isomer, unassigned) [#302, N-(4-chloro-3-fluoro-phenyl)-2-[3-(difluoromethyl)-5,10-dimethyl-9-oxo-4,8,12-triazatricyclo[9.4.0.0^2,7]pentadeca-1(15),2,4,6,11,13-hexaen-8-yl]acetamide]: the IC50 on system Xc^− [1] was 0.0398 to 0.1 µM; on system Xc^− [2], 0.0158 to 0.0398 µM.

In the case of `Cc1cc2c(c(F)n1)-c1cccc(C#N)c1CC(=O)N2CC(=O)Nc1ccc(C(F)(F)F)cc1` [#88, 2-(8-cyano-1-fluoro-3-methyl-6-oxo-7H-pyrido[4,3-d][3]benzazepin-5-yl)-N-[4-(trifluoromethyl)phenyl]acetamide], the IC50 at system Xc^− [1] and on system Xc^− [2] was 0.0398 to 0.1 µM in each case.

With `O=C(CN1C(=O)Cc2ncccc2-c2c1cc(Cl)nc2Cl)Nc1ccc(C(F)(F)F)cc1` [#168, 2-(3,5-dichloro-9-oxo-4,8,12-triazatricyclo[9.4.0.0^2,7]pentadeca-1(11),2(7),3,5,12,14-hexaen-8-yl)-N-[4-(trifluoromethyl)phenyl]acetamide], the IC50 is 0.1 to 0.501 µM at system Xc^− [1] and 0.0158 to 0.0398 µM at system Xc^− [2].

On to `Cc1cc2c(c(F)n1)-c1ncc(F)cc1C(C)C(=O)N2CC(=O)Nc1ccc(C(F)F)cc1` (single isomer, unassigned) [#304, 2-[5,15-difluoro-8,13-dimethyl-9-oxo-3,10,14-triazatricyclo[9.4.0.0^2,7]pentadeca-1(15),2,4,6,11,13-hexaen-10-yl]-N-[4-(difluoromethyl)phenyl]acetamide], for which the IC50 at system Xc^− [1] and at system Xc^− [2] was 0.0158 to 0.0398 µM in each case.

`Cc1cc2c(c(F)n1)-c1cccnc1[C@@H](CO)C(=O)N2CC(=O)Nc1ccc(C(F)(F)F)cc1` (single isomer, unassigned) [#206, Enantiomer (10S) or (10R) of 2-[(3-fluoro-10-(hydroxymethyl)-5-methyl-9-oxo-4,8,12-triazatricyclo[9.4.0.0^2,7]pentadeca-1(11),2(7),3,5,12,14-hexaen-8-yl]-N-[4-(trifluoromethyl)phenyl]acetamide]: the IC50 on system Xc^− [1] is 0.0398 to 0.1 µM; on system Xc^− [2], below 0.0158 µM.

Consider `Cc1cc2c(cn1)-c1cccnc1C(C)C(=O)N2CC(=O)Nc1ccc(C(F)F)cc1` (single isomer, unassigned) [#250, Enantiomer (10S) or (10R) of N-[4-(difluoromethyl)phenyl]-2-[5,10-dimethyl-9-oxo-4,8,12-triazatricyclo[9.4.0.0^2,l]pentadeca-1(15),2,4,6,11,13-hexaen-8-yl]acetamide], for which the “pIC50 Cystine-induced glutamate release assay” value against system Xc^− [1] was “C (about 7.40 < pIC50 ≤ about 7.80)”. The “pIC50 [^14C] L-Cystine uptake assay” value against system Xc^− [2] is “B (about 7.00 < pIC50 ≤ about 7.40)”.

Turning to `CC1C(=O)N(CC(=O)Nc2ccc(Cl)c(F)c2)c2cc(Cl)cc(F)c2-c2cnncc21` (single isomer, unassigned) [#385, 2-[9-chloro-11-fluoro-5-methyl-6-oxo-5H-pyridazino[4,5-d][1]benzazepin-7-yl]-N-(4-chloro-3-fluoro-phenyl)acetamide], the IC50 on system Xc^− [1] was 0.0158 to 0.0398 µM; on system Xc^− [2], below 0.0158 µM.

`Cc1cc2c(c(F)n1)-c1ccc(F)cc1C(C)C(=O)N2CC(=O)Nc1ccc(Cl)c(F)c1` (stereo not drawn) [#404, N-(4-chloro-3-fluoro-phenyl)-2-(1,9-difluoro-3,7-dimethyl-6-oxo-7H-pyrido[3,4-a][3]benzazepin-5-yl)acetamide]: the IC50 was 0.0158 to 0.0398 µM at system Xc^− [1] and 0.0398 to 0.1 µM at system Xc^− [2].
